Measurements as given in US20240174622A1, “COMPOUND AND RADIOACTIVE LABELING COMPOUND” (NIHON MEDI-PHYSICS CO., LTD., priority 2021, published 2024).

Tests used:
PC-3 tumor = assay: SPECT/CT, PC-3 tumor in mouse transplanted with LNCaP and PC-3; type: in vivo; conditions: 24 (and 48) hours after administration
Method: LNCaP cells (1.0×10^7 cells/mouse) were suspended in a mixture of PBS and Matrigel (1:1, 150 μL) and subcutaneously transplanted to the right shoulder of a male CB17/IcrJcl-Prkdc^scid mouse kept in the same manner as in Example 1-1 under isoflurane anesthesia. In addition, a suspension of PC-3 cells (1.0×10^7 cells/mouse) in a mixture of PBS and Matrigel (1:1, 150 μL) was subcutaneously transplanted into the left shoulder of the same mouse under isoflurane anesthesia. Thereafter, the mouse was kept for 40 to 60 days. In this way, a tumor-transplanted mouse in which LNCaP cells and PC-3 cells were simultaneously transplanted into one mouse was obtained. The tumor-transplanted mouse was then administered saline solution (2.7 MBq, 100 μL) of [^111In]In-PtDA from the tail vein. SPECT/CT was performed 24 and 48 hours after administration with FX3300 pre-clinical imaging system, which is manufactured by Gamma Medica-Ideas. Imaging was performed using a pinhole collimator with a diameter of 1.0 mm at a rotation radius of 35 mm, a projection time of 70 seconds, and the number of projections of 32 times under isoflurane anesthesia. After SPECT, CT (Tube voltage: 60 kV, Tube current: 350 μA) was performed. Image reconstruction was performed on the projection data of SPECT through three-dimensional ordered subset expectation maximization method (8 subsets, 5 iterations). […]

[1] = tested on: PC-3 tumor-transplanted mouse; assay: Internal radioactivity distribution using PC-3 tumor-transplanted mouse; type: in vivo; conditions: for Blood / Brain / Heart / Intestine / Kidney / Liver / Lung / Muscle / PC-3 Tumor / Pancreas / Spleen / Stomach (% ID): PC-3 tumor-transplanted mice; for accumulation at the PC-3 tumor compared with the LNCaP tumor at the same time point (in words): mouse, in vivo
Method: (§1) The animal test was performed in compliance with the guidelines of Kyoto University Animal Experiment Committee. Male CB17/IcrJcl-Prkdc^scid mice were purchased from CLEA Japan, Inc. The animals were kept under 12 h/12 h, day/night cycle conditions and fed ad libitum with food and water. LNCaP cells (1.0×10^7 cells/mouse) or PC-3 cells (1.0×10^7 cells/mouse) were suspended in a mixture of PBS and Matrigel manufactured by Corning Life Sciences (1:1, 150 μL) and the suspension was subcutaneously transplanted to the right shoulder of mice under isoflurane anesthesia. Thereafter, the mice were kept for 40 to 60 days.
LNCaP or PC-3 tumor-implanted mice were administered saline solutions (185 kBq, 100 μL) of [^111In]In-PSMA-DA1 or [^111In]In-PSMA-DB from the tail vein (n=3 each). Mice were euthanized 1, 4, 24, 48, 96, and 192 hours after administration. Thereafter, blood and each organ were recovered, and the mass and radioactivity of the organs were measured.
The percentage (% ID) of the radioactivity amount to the administered radioactivity amount (injected dose) is shown as the value (% ID/g) divided by the blood mass or the organ mass (g).
as §1, with “LNCaP cells (4.3×10^6 cells/mouse) or” for “LNCaP cells (1.0×10^7 cells/mouse) or”, “PC-3 cells (3.3×10^6 cells/mouse) were” for “PC-3 cells (1.0×10^7 cells/mouse) were”, “shoulder of CB17/IcrJcl-Prkdc^scid mice under” for “shoulder of mice under”
Mice were euthanized 1, 4, 24, 48, 96, and 192 hours after administration. Thereafter, blood and each organ were recovered, and the mass and radioactivity of the organs were measured.
The results are shown in Table 13 (Mean value±standard deviation, n=3).

[2] = biological target: T1, plasma albumin (mouse plasma) (Mus musculus, UniProt P07724); assay: Evaluation of binding to albumin (mouse plasma); conditions: for radioactivity in the eluate (in words): left to stand in mouse plasma
T1 construct: from tissue; host or cells: mouse plasma
T1 sequence (P07724 25-608): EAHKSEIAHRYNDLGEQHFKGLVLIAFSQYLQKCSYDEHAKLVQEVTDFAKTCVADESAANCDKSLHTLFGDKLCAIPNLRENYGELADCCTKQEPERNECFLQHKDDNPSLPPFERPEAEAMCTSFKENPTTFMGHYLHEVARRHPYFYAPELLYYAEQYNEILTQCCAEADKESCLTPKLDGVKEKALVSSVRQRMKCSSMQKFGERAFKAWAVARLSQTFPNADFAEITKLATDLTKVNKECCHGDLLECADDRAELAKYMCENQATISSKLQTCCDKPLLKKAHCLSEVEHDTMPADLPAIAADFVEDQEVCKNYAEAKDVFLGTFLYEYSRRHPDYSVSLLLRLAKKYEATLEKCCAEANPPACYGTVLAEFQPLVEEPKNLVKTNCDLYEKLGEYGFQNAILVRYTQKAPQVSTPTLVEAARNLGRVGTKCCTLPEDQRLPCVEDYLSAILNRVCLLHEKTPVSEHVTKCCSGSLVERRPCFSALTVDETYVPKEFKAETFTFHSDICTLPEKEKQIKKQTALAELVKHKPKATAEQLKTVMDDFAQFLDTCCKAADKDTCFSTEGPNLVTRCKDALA
Method: A PBS solution (37 kBq, 50 μL) of [^111In]In-PSMA-DA1 or [^111In]In-PSMA-DB was added to 200 μL of PBS, mouse plasma, human plasma, or a human serum albumin (HSA) solution (45 mg/mL) in PBS, respectively, and the mixtures were allowed to stand at 37° C. for 10 minutes. Thereafter, the reaction liquids were added to a spin column ([…]; manufactured by Cytiva), and centrifuged at 1500×g at 4° C. for 2 minutes. After separation, the radioactivity for each of the column and the eluate was measured with a gamma counter.
When a compound to be evaluated binds to albumin to form a composite, the compound passes through the column because of the increased molecular size.
As in Example 1-1 described above, PBS, mouse plasma, human plasma, and human albumin were used to evaluate binding to albumin. Evaluation was carried out by the same experimental procedure and statistical method as in Example 1-1, except that a PBS solution (37 kBq, 50 μL) of [^111In]In-PtDA was used.
Thereafter, the reaction liquid was added to a spin column (Sephadex G-50; manufactured by Cytiva), and centrifuged at 1500×g at 4° C. for 2 minutes. After separation, the radioactivity of the column and the eluate was measured with a gamma counter.

[3] = Evaluation of distribution coefficient (1-octanol/PBS); type: physicochemical; conditions: 1-octanol / PBS pH 7.4
Method: [^111In]In-PtDA (111 kBq) was added to a mixture of PBS (pH 7.4, 3 mL) and 1-octanol (3 mL), and the mixture was dispersed by vortexing for 2 minutes and then centrifuged at 4000×g for 5 minutes. 1 mL was recovered respectively from the 1-octanol layer and the PBS layer, and the radioactivity of each layer was measured with a gamma counter (n=3).
As the calculation formula, “(Distribution coefficient)=Log10[(radioactivity of 1-octanol layer [kBq])/(radioactivity of PBS layer [kBq])]” was used.

Row | Compound | radioactivity signal in the PC-3 tumor in SPECT/CT (PC-3 tumor) | Blood ([1]; 24 h after administration) | Brain ([1]; 24 h after administration) | Heart ([1]; 24 h after administration) | Intestine ([1]; 24 h after administration) | Kidney ([1]; 24 h after administration) | Liver ([1]; 24 h after administration) | Lung ([1]; 24 h after administration) | Muscle ([1]; 24 h after administration) | PC-3 Tumor ([1]; 24 h after administration) | Pancreas ([1]; 24 h after administration) | Spleen ([1]; 24 h after administration) | Stomach (% ID) ([1]; 24 h after administration) | accumulation at the PC-3 tumor compared with the LNCaP tumor at the same time point (in words) [1] | radioactivity in the eluate (in words) [2] | other results
1 | O=C([O-])CN(Cc1cccc(C(=O)[O-])n1)C[C@H](Cc1ccc(NC(=O)[C@H](CCCCNC(=O)CCC(=O)NCCCC[C@H](NC(=O)N[C@@H](CCC(=O)O)C(=O)O)C(=O)O)NC(=O)CCCc2ccc(I)cc2)cc1)N(CC(=O)[O-])Cc1cccc(C(=O)[O-])n1.[111In+3] [[^111In]In-Octapa-2] | hardly observed |  |  |  |  |  |  |  |  |  |  |  |  |  |  | 
2 | O=C(O)CC[C@H](NC(=O)N[C@@H](CCCCNC(=O)[C@H](Cc1ccc2ccccc2c1)NC(=O)[C@H]1CC[C@H](CNC(=O)CCC(C(=O)O)N2CCN(CC(=O)O)CCN(C(CCC(=O)N[C@@H](CCCCNC(=O)CCCc3ccc(I)cc3)C(=O)O)C(=O)O)CCN(CC(=O)O)CC2)CC1)C(=O)O)C(=O)O (stereo partly drawn) [[^111In]In-PSMA-NAT-DA1, metal not drawn] |  | 5.73 ± 1.10 % ID/g | 0.22 ± 0.03 % ID/g | 2.67 ± 0.58 % ID/g | 0.68 ± 0.07 % ID/g | 27.9 ± 6.05 % ID/g | 1.74 ± 0.37 % ID/g | 7.41 ± 1.13 % ID/g | 0.83 ± 0.26 % ID/g | 3.21 ± 1.00 % ID/g | 1.25 ± 0.04 % ID/g | 6.94 ± 4.55 % ID/g | 0.15 ± 0.03 % ID | significantly lower | significantly high | 
3 | O=C([O-])CN1CCN(C(CCC(=O)NCCCC[C@H](NC(=O)N[C@@H](CCC(=O)O)C(=O)O)C(=O)O)C(=O)[O-])CCN(CC(=O)[O-])CCN(C(CCC(=O)Nc2ccccc2)C(=O)[O-])CC1.[111In+3] (stereo partly drawn) [[^111In]In-PSMA-DB, reference compound] |  |  |  |  |  |  |  |  |  |  |  |  |  | less accumulated |  | Blood ([1]; 1 h after administration): 1.92 ± 0.27 % ID/g; Brain ([1]; 1 h after administration): 0.06 ± 0.00 % ID/g; Heart ([1]; 1 h after administration): 0.49 ± 0.05 % ID/g; Intestine ([1]; 1 h after administration): 0.48 ± 0.04 % ID/g; Kidney ([1]; 1 h after administration): 49.5 ± 12.6 % ID/g; Liver ([1]; 1 h after administration): 0.62 ± 0.03 % ID/g; Lung ([1]; 1 h after administration): 1.36 ± 0.23 % ID/g; Muscle ([1]; 1 h after administration): 0.21 ± 0.08 % ID/g; PC-3 Tumor ([1]; 1 h after administration): 0.61 ± 0.06 % ID/g; Pancreas ([1]; 1 h after administration): 0.44 ± 0.06 % ID/g; Spleen ([1]; 1 h after administration): 2.57 ± 0.39 % ID/g; Stomach (% ID) ([1]; 1 h after administration): 0.12 ± 0.04 % ID
4 | O=C([O-])CN1CCN(C(CCC(=O)NCCCC[C@H](NC(=O)N[C@@H](CCC(=O)O)C(=O)O)C(=O)O)C(=O)[O-])CCN(CC(=O)[O-])CCN(C(CCC(=O)N[C@@H](CCCCNC(=O)CCCc2ccc(I)cc2)C(=O)O)C(=O)[O-])CC1.[111In+3] (stereo partly drawn) [[^111In]In-PSMA-DA1] |  | 5.73 ± 0.67 % ID/g | 0.17 ± 0.04 % ID/g | 1.90 ± 0.22 % ID/g | 1.37 ± 0.22 % ID/g | 9.56 ± 1.55 % ID/g | 1.60 ± 0.12 % ID/g | 4.74 ± 0.67 % ID/g | 0.59 ± 0.02 % ID/g | 2.69 ± 0.30 % ID/g | 1.37 ± 0.04 % ID/g | 2.52 ± 0.12 % ID/g | 0.27 ± 0.08 % ID | less accumulated | significantly higher | 
5 | O=C([O-])CN1CCN(C(CCC(=O)NCCC(=O)N2Cc3ccccc3-c3c(nnn3CCOCCOCCOCCOCCC(=O)NCCCC[C@H](NC(=O)N[C@@H](CCC(=O)O)C(=O)O)C(=O)O)-c3ccccc32)C(=O)[O-])CCN(CC(=O)[O-])CCN(C(CCC(=O)N[C@@H](CCCCNC(=O)CCCc2ccc(I)cc2)C(=O)O)C(=O)[O-])CC1.[111In+3] (stereo partly drawn) [[^111In]In-PtDA] | almost no radioactive signal |  |  |  |  |  |  |  |  |  |  |  |  |  |  | radioactivity in the eluate ([2]; mouse plasma): 67.2%; Log P (distribution coefficient) [3]: −3.08±0.02
